{"source": "patent US7563951B2", "about": "“Soybean seeds and plants exhibiting natural herbicide resistance” (Natural Genes, Inc., priority 2002, dated 2009)", "test_system": "soybean seeds", "experiment": "Seed pre-soak in 2 percent aqueous glyphosate, then planting and observing germination", "format": "in vivo, Glycine max L.", "conditions": "six hour soak at room temperature, observed three weeks", "from_the_text": "The identification of soybean germplasm within which naturally-occurring herbicide resistance genes reside involved the screening of thirty-four soybean lines obtained from publicly-available seed stocks. The initial step in the screening was to pre-soak individual batches of seeds representing the thirty-four test lines in a 2 percent aqueous solution of glyphosate at room temperature. The individual batches of seeds were immersed in this 2 percent solution for a period of six hours. […] This screening step was essential to determine how seeds responded to the herbicide. Twelve of the varieties were present as approximately 2,500 seeds. There were approximately 5,000 seeds of the remaining 22 varieties. Each variety was immersed in separate containers to assure variety identification and isolation. The varieties that were tested are identified in Table 1.\nAfter this initial pre-soak, each lot of seeds was labeled and was placed in a flat (36″×18″×9″) containing a soil/peat mixture growth medium, with the mixture being 50 percent top soil (sandy loam) and 50 percent peat moss, that was provided at a depth of 9 inches. […]\nGermination and emergence of any seedlings was then observed for the next three weeks. […] Of these five lines, the ‘Dwight’ and ‘Jack’ varieties were chosen for further screening using large quantities of seeds."}
{"smiles": "O=C(O)CNCP(=O)(O)O", "note": "[glyphosate, N-(phosphonomethyl)glycine]", "values": [{"measurement": "Germination of herbicide-treated soybean seeds", "value": "failed to germinate"}]}
